Experimental data as given in EP2408450B1, “ALPHA-(N-SULFONAMIDO)ACETAMIDE COMPOUND AS AN INHIBITOR OF BETA AMYLOID PEPTIDE PRODUCTION” (Bristol-Myers Squibb Company, priority 2009, dated 2010).

Legend:
Aβ40 = experiment: Inhibition of Aβ40 formation in cultured H4 APP751 SWE cells; format: cell-based; conditions: H4-8Sw cells, mean ± SD, n = 50
Experimental: (§2) Cells were maintained in log phase through twice weekly passage at a 1:20 dilution. […] Following incubation for 19 hours in 5% CO2 at 37°C, plates were briefly centrifuged (1000 rpm, 5 min). […] Antibody cocktails were freshly prepared by dilution into 40 mM Tris-HCl (pH 7.4) with 0.2% BSA and added to assay plates. […] Assay plates containing antibodies were sealed with aluminum foil and incubated overnight at 4°C. Signal was determined using a Viewlux counter (Perkin Elmer) and IC50 values determined using curve fitting in CurveMaster (Excel Fit based).

[1] = Metabolic stability in liver microsomes (mouse); format: in vitro ADME
Experimental: (§1) Mouse, rat, dog, human, and cynomolgus monkey liver microsomes were obtained from BD Gentest (Woburn, MA). The lot numbers were 13 (mouse), 8 (rat), 8 (dog), 19 and 26 (human), and 3 (cynomolgus monkey). […] The reaction, conducted in triplicate, was initiated by the addition of NADPH followed by incubation at 37°C for 50 minutes. Aliquots of samples (0.25 mL) were taken at 0, 5, 10, 20, 30, 40 and 50 minutes and the reaction was quenched by the addition of 3 volumes of acetonitrile. […] The reaction, conducted in triplicate, was initiated by the addition of NADPH followed by incubation at 37 °C for 50 minutes. Aliquots of samples (0.25 mL) were taken at 0, 5, 10, 20, 30, 40 and 50 minutes and the reaction was quenched by the addition of 3 volumes of acetonitrile. […] The reaction, conducted in duplicate, was initiated by the addition of NADPH followed by incubation at 37°C for 40 minutes. Aliquots of samples (0.25 mL) were taken at 0, 5, 10, 15, 20, 30 and 40 minutes and the reaction was quenched by the addition of 3 volumes of acetonitrile. For all studies, samples were analyzed immediately by an LC/MS method.

plasma Aβ40 = experiment: Rat plasma Aβ40 assay (4G8-TSD ELISA); conditions: for plasma Aβ40, % of baseline Aβ40 values: 2 to 24 hours post dosing
Aβ42 = experiment: Inhibition of Aβ42 formation in cultured H4 APP751 SWE cells; format: cell-based; conditions: H4-8Sw cells, mean ± SD, n = 45
Experimental: as §2

[2] = Metabolic stability in liver microsomes (rat); format: in vitro ADME
Experimental: as §1

[3] = target: presenilin target site of the γ-secretase complex; experiment: Presenilin binding assay (radioligand displacement, THP-1 membranes); conditions: mean ± SD, n = 8
Experimental: Radioligand displacement assays with [^3H] (R)-4-((N-(1-amino-4-methyl-1-oxopentan-2-yl)-4-chlorophenylsulfonamido)methyl)-N-(2-methoxyethyl)benzamide were carried out using a method previously described for [^3H] (2R,3S)-2-isobutyl-N1-((S)-2-oxo-1-(3-phenoxybenzyl)azepan-3-yl)-3-propylsuccinamide (RE987, compound A [Seiffert, D. et al., "Presenilin-1 and -2 are molecular targets for γ-secretase inhibitors", J. Biol. Chem., 275(44):34086-34091 (2000)]). Several experiments were performed to confirm that [^3H] (R)-4-((N-(1-amino-4-methyl-1-oxopentan-2-yl)-4-chlorophenylsulfonamido)methyl)-N-(2-methoxyethyl)benzamide bound to γ-secretase. First, the specific binding of [^3H] […] (R)-4-((N-(1-amino-4-methyl-1-oxopentan-2-yl)-4-chlorophenylsulfonamido)methyl)-N-(2-methoxyethyl)benzamide binding to THP-1 membranes correlated well with γ-secretase potency both as measured using previous radioligand binding assays and inhibition of Aβ formation in cultured cells.
THP-1 cells were grown in Spinner cultures in RPMI 1640 containing L-glutamine (Life Technologies Inc.) and 10 µM β-mercaptoethanol to a cell density of 5 x 10^5/mL. […] Filters were washed three times with 0.3 mL per well of phosphate buffered saline pH 7.0 at 4°C and radioactivity was measured using a Wallac 1450 Microbeta liquid scintillation counter (PerkinElmer, Boston, MA). […]

[4] = Metabolic stability in liver microsomes (dog); format: in vitro ADME
Experimental: as §1

[5] = Metabolic stability in liver microsomes (cynomolgus monkey); format: in vitro ADME
Experimental: as §1

CYP3A4 mRNA = experiment: Induction of CYP3A4 mRNA in Fa2N-4 cells; conditions: Fa2N-4 hepatocytes, 3 days
Experimental: [[2-fluoro-4-(1,2,4-oxadiazol-3-yl)phenyl]methyl]amino]-5,5,5-trifluoropentanamide to induce CYP3A4 mRNA was evaluated in vitro using the Fa2N-4 cell line. The Fa2N-4 cell is an immortalized human hepatocyte line that was created using the Simian virus 40 (SV40) T antigen as the immortalizing gene, while retaining basal expression and inducibility of several CYP isoforms, including CYP3A4. Fa2N-4 cells and MFE Support Media F were provided by XenoTech, LLC (Lenexa, Kansas).
Upon the receipt of the cells, the media were changed and the cells maintained overnight in a humidified, CO2-supplied incubator. After this adaptation period, the cells were examined under a light microscope and a determination was made as to whether the cells were morphologically normal and suitable for use. During the treatment period, the cells were visually inspected on a daily basis; cellular morphology, confluency, and signs of toxicity due to the test article were documented as necessary. […] Rifampicin (10 µM), a prototypical CYP3A4 inducer, was used as the positive control. Fa2N-4 cells were exposed to the test articles for a total of 3 days. The culture medium was replaced daily with fresh medium containing the test articles. After a total of ~72 hours of exposure, medium was aspirated and the cells washed once with warm phosphate buffered saline solution before adding the cell lysis buffer (Qiagen, Valencia, CA).

## NC(=O)[C@@H](CCC(F)(F)F)N(Cc1ccc(-c2ncon2)cc1F)S(=O)(=O)c1ccc(Cl)cc1 [(2R)-2-[[(4-chlorophenyl)sulfonyl][[2-fluoro-4-(1,2,4-oxadiazol-3-yl)phenyl]methyl]amino]-5,5,5-trifluoropentanamide]
Aβ40
  IC50: 0.3 ± 0.15 nM
[1]; mouse microsomes, NADPH-fortified, 1 µM
  rate of in vitro metabolism: 690 pmol/min/mg protein
[1]; mouse, scaled from liver microsome rate
  predicted in vivo (serum) clearance: approximately 87 mL/min/kg
Plasma Aβ40; Rattus norvegicus, read-out: ED50 for reduction of plasma Aβ40
  ED50: 1 to 10 mg/kg
Plasma Aβ40; rat, single dose 1 mg/kg, by 8 hours
  plasma Aβ40, % of starting values: 250%
Plasma Aβ40; rat, single dose 1 mg/kg, by 24 hours
  plasma Aβ40: returning to baseline values
Plasma Aβ40; rat, single dose 10 mg/kg
  plasma Aβ40, % of baseline Aβ40 values: less than 25%
Plasma Aβ40; rat, single dose 30 mg/kg
  plasma Aβ40, % of vehicle control: 2%
Plasma Aβ40; rat, single dose 100 mg/kg
  plasma Aβ40, % of baseline Aβ40 values: less than 25%
Aβ42
  IC50: 0.27 ± 0.12 nM
[2]; rat microsomes, NADPH-fortified, 1 µM
  rate of in vitro metabolism: 630 pmol/min/mg protein
[2]; rat, scaled from liver microsome rate
  predicted in vivo (serum) clearance: ~52 mL/min/kg
[3]
  Ki: 0.48 nM
[4]; dog microsomes, NADPH-fortified, 1 µM
  rate of in vitro metabolism: 40 pmol/min/mg protein
[4]; dog, scaled from liver microsome rate
  predicted in vivo (serum) clearance: ~14 mL/min/kg
[5]; cynomolgus monkey microsomes, NADPH-fortified, 1 µM
  rate of in vitro metabolism: 495 pmol/min/mg protein
[5]; cynomolgus monkey, scaled from liver microsome rate
  predicted in vivo (serum) clearance: ~39 mL/min/kg
CYP3A4 mRNA; highest concentration tested (20 µM)
  increase in CYP3A4 mRNA expression over the vehicle control: 2.6 fold
CYP3A4 mRNA; lower concentrations (≤ 8.0 µM)
  induction of CYP3A4: ≤ 2.0 fold
